Each structure is given as a SMILES string. Read-outs that look alike come from different tables or passages of the source. Starred links: 1 amine or outer side, 2 acyl side, 3 side chain; linkers in the order of their positions; H or OH if unused. Non-standard residues stand in square brackets, D forms with d. Residues, ends and D or L forms follow the SMILES beside them. Groups on a side chain read outwards from the residue. *: point of attachment. C20 diacid = O=C(O)CCCCCCCCCCCCCCCCCCC(=O)*; γGlu = O=C(O)[C@H](CCC(=O)[*:2])N[*:1]; NMeI = CC[C@H](C)[C@H](NC)C(=O)O; Nle = CCCC[C@H](N)C(=O)O; AEEA = NCCOCCOCC(=O)O; Aib = CC(C)(N)C(=O)O

Assay [1] deals with T1, hCRHR2 (Homo sapiens, UniProt Q13324).
T1 sequence (Q13324 1-411): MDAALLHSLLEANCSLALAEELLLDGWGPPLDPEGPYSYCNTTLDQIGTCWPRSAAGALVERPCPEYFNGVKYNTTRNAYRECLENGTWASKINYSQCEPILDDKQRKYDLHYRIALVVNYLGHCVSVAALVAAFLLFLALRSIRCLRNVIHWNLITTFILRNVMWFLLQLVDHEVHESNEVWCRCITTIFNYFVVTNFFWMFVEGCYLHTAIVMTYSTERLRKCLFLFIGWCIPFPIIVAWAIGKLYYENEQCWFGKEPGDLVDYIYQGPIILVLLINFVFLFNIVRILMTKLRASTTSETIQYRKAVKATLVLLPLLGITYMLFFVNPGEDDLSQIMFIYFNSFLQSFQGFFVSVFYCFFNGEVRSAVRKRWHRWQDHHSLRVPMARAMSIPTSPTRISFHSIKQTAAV
The assay is described as follows: HTRF cAMP assay, determination of hCRHR2 potency (peptide libraries 5 conc., purified peptides 11 conc.). In kind it is cell-based. The method in brief: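 Potency was read as cAMP accumulation in a stable CHO-K1 line expressing human CRHR2, used in suspension right after thawing. Detection relied on energy transfer from antibody-bound cryptate to d2-cAMP.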

Assay [2] addresses T2, hCRHR1 (Homo sapiens, UniProt P34998).
T2 sequence (P34998 24-415): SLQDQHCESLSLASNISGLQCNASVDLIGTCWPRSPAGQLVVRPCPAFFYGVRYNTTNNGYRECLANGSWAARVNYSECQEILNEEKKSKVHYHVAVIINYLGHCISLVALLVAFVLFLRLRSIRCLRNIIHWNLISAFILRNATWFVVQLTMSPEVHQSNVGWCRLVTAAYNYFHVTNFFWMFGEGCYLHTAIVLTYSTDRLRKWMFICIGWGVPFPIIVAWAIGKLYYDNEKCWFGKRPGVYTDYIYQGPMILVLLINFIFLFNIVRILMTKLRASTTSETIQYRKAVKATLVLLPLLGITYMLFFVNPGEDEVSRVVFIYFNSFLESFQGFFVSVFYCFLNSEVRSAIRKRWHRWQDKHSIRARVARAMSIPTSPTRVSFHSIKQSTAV
The assay is described as follows: HTRF cAMP assay, determination of hCRHR1 potency (peptide libraries 5 conc., purified peptides 11 conc.). In kind it is cell-based. An excerpt: HTRF (CisBio) cAMP assay: The assay technology has thoroughly been described in the CisBio HTRF cAMP assay Kit manual (# 62AM4PEC). Briefly, time resolved fluorescence technic was applied to measure cAMP. This technic is based on a competitive immunoassay using cryptate-labelled anti-cAMP antibody and d2-labeled cAMP. In the absence of cellular cAMP, the anti-cAMP cryptate conjugate may get into proximity to cAMP-d2 conjugate and energy (FRET) can be transferred from cryptate to d2. CHO-K1 cells stably expressing the human corticotropin-releasing hormone receptor 1 (Eurofins/DiscoverX Cat #95-0047C2 hCRHR1 stable monoclonal cell lines) were used as cells in suspension, brought to life from frozen cell stocks immediately before assay performance. […] Concentration-response evaluation of compounds was performed with 5 concentrations of agonist peptides and EC50 values were calculated by nonlinear regression using sigmoid concentration-response with variable slope. Concentration-response evaluation of compounds was performed with 11 concentrations of agonist peptides and EC50 values were calculated by nonlinear regression using sigmoid concentration-response with variable slope.
For orientation: TR-FRET usually uses a lanthanide donor and a delayed reading to cut background.

Where [3] appears, read: library peptides, matched molecular pairs L vs Nle in position X^38, read-out: Potency hCRHR2 pEC50 (converted).
The mark [4] stands for this setting: library peptides, matched molecular pairs L vs Nle in position X^38, read-out: Potency hCRHR1 pEC50 (converted).

In the case of `CCCC[C@H](NC(=O)[C@@H](NC(=O)[C@H](CCC(=O)O)NC(=O)[C@H](C)NC(=O)[C@H](CC(N)=O)NC(=O)C(C)(C)NC(=O)[C@H](CCCCNC(=O)COCCOCCNC(=O)COCCOCCNC(=O)CC[C@H](NC(=O)CC[C@H](NC(=O)CCCCCCCCCCCCCCCCCCC(=O)O)C(=O)O)C(=O)O)NC(=O)[C@H](C)NC(=O)[C@H](CCC(N)=O)NC(=O)[C@H](CCC(=O)O)NC(=O)[C@H](CCCNC(=N)N)NC(=O)[C@H](C)NC(=O)[C@H](C)NC(=O)[C@H](CCCNC(=N)N)NC(=O)[C@H](C)NC(=O)[C@H](CCCNC(=N)N)NC(=O)[C@H](C)NC(=O)[C@H](CCC(N)=O)NC(=O)[C@H](CCCNC(=N)N)NC(=O)[C@H](CC(C)C)NC(=O)[C@H](CC(C)C)NC(=O)[C@@H](NC(=O)[C@H](CCC(N)=O)NC(=O)[C@H](CC(C)C)NC(=O)[C@H](CC(C)C)NC(=O)CNC(=O)[C@@H](NC(=O)[C@@H]1CCCN1C(=O)[C@@H](NC(=O)[C@H](CC(=O)O)NC(=O)[C@H](CC(C)C)NC(=O)[C@H](CO)NC(=O)[C@H](CC(C)C)NC(=O)[C@@H](NC(=O)[C@@H](NC)[C@@H](C)CC)C(C)C)C(C)C)[C@@H](C)CC)[C@@H](C)CC)[C@@H](C)CC)C(=O)N[C@@H](C)C(=O)N[C@@H](CCC(=O)O)C(=O)N[C@H](C(N)=O)C(C)C` [compound 232] (H-[NMeI]VLSLDVPIGLLQILLRQARARAAREQAK([AEEA-AEEA-γGlu-γGlu-C20 diacid])[Aib]NAEI[Nle]AEV-NH2), the EC50 in assay [1] (Table 4, library peptides having X^38 = Nle, read-out: hCRHR2 pEC50 (converted)) is 0.158 nM; in assay [2] (Table 4, library peptides having X^38 = Nle, read-out: hCRHR1 pEC50 (converted)), 50.1 µM.
`CC[C@H](C)[C@H](N)C(=O)N[C@H](C(=O)N[C@@H](CC(C)C)C(=O)N[C@@H](CO)C(=O)N[C@@H](CC(C)C)C(=O)N[C@@H](CC(=O)O)C(=O)N[C@H](C(=O)N1CCC[C@H]1C(=O)N[C@H](C(=O)NCC(=O)N[C@@H](CC(C)C)C(=O)N[C@@H](CC(C)C)C(=O)N[C@@H](CCC(N)=O)C(=O)N[C@H](C(=O)N[C@@H](CC(C)C)C(=O)N[C@@H](CC(C)C)C(=O)N[C@@H](CCC(=O)O)C(=O)N[C@@H](CCC(N)=O)C(=O)N[C@@H](C)C(=O)N[C@@H](CCCNC(=N)N)C(=O)N[C@@H](C)C(=O)N[C@@H](CCC(N)=O)C(=O)N[C@@H](C)C(=O)N[C@@H](C)C(=O)N[C@@H](CCCNC(=N)N)C(=O)N[C@@H](CCC(N)=O)C(=O)N[C@@H](CCC(N)=O)C(=O)N[C@@H](C)C(=O)N[C@@H](CCCCNC(=O)COCCOCCNC(=O)COCCOCCNC(=O)CC[C@H](NC(=O)CC[C@H](NC(=O)CCCCCCCCCCCCCCCCCCC(=O)O)C(=O)O)C(=O)O)C(=O)N[C@H](C(=O)N[C@@H](CC(N)=O)C(=O)N[C@@H](C)C(=O)N[C@@H](CCC(=O)O)C(=O)N[C@H](C(=O)N[C@@H](CC(C)C)C(=O)N[C@@H](C)C(=O)N[C@@H](CCC(=O)O)C(=O)N[C@H](C(N)=O)C(C)C)[C@@H](C)CC)[C@@H](C)O)[C@@H](C)CC)[C@@H](C)CC)C(C)C)C(C)C` [compound 54] (H-IVLSLDVPIGLLQILLEQARAQAARQQAK([AEEA-AEEA-γGlu-γGlu-C20 diacid])TNAEILAEV-NH2): the EC50 was 0.398 nM in assay [1] (setting [3]) and 20 µM in assay [2] (setting [4]).
Consider `CC[C@H](C)[C@H](N)C(=O)N[C@H](C(=O)N[C@@H](CC(C)C)C(=O)N[C@@H](CO)C(=O)N[C@@H](CC(C)C)C(=O)N[C@@H](CC(=O)O)C(=O)N[C@H](C(=O)N1CCC[C@H]1C(=O)N[C@H](C(=O)NCC(=O)N[C@@H](CC(C)C)C(=O)N[C@@H](CCCCNC(=O)COCCOCCNC(=O)COCCOCCNC(=O)CC[C@H](NC(=O)CC[C@H](NC(=O)CCCCCCCCCCCCCCCCCCC(=O)O)C(=O)O)C(=O)O)C(=O)N[C@@H](CCC(N)=O)C(=O)N[C@H](C(=O)N[C@@H](CC(C)C)C(=O)N[C@@H](CC(C)C)C(=O)N[C@@H](CCC(=O)O)C(=O)N[C@@H](CCC(N)=O)C(=O)N[C@@H](C)C(=O)N[C@@H](CCCNC(=N)N)C(=O)N[C@@H](C)C(=O)N[C@@H](CCCNC(=N)N)C(=O)N[C@@H](C)C(=O)N[C@@H](C)C(=O)N[C@@H](CCCNC(=N)N)C(=O)N[C@@H](CCC(=O)O)C(=O)N[C@@H](CCC(N)=O)C(=O)N[C@@H](C)C(=O)N[C@H](C(=O)N[C@H](C(=O)N[C@@H](CC(N)=O)C(=O)N[C@@H](C)C(=O)N[C@@H](CCC(=O)O)C(=O)N[C@H](C(=O)N[C@@H](CC(C)C)C(=O)N[C@@H](C)C(=O)N[C@@H](CCC(=O)O)C(=O)N[C@H](C(N)=O)C(C)C)[C@@H](C)CC)[C@@H](C)O)[C@@H](C)O)[C@@H](C)CC)[C@@H](C)CC)C(C)C)C(C)C` [SEQ ID NO: 261] (H-IVLSLDVPIGLK([AEEA-AEEA-γGlu-γGlu-C20 diacid])QILLEQARARAAREQATTNAEILAEV-NH2), for which the “Selectivity ratio (hCRHR1/ hCRHR2)” value in assay [1] (hCRHR1-EC50/hCRHR2-EC50) is reported as above 208. Moreover, the EC50 was 24 nM in assay [1] (purified peptides, CHO-K1 cells stably expressing hCRHR2, cAMP HTRF, read-out: hCRHR2 EC50) and above 5 µM in assay [2] (purified peptides, CHO-K1 cells stably expressing hCRHR1, cAMP HTRF, read-out: hCRHR1 EC50).
Take `CCCC[C@H](NC(=O)[C@@H](NC(=O)[C@H](CCC(=O)O)NC(=O)[C@H](C)NC(=O)[C@H](CC(N)=O)NC(=O)[C@@H](NC(=O)[C@H](CCCCNC(=O)COCCOCCNC(=O)COCCOCCNC(=O)CC[C@H](NC(=O)CC[C@H](NC(=O)CCCCCCCCCCCCCCCCCCC(=O)O)C(=O)O)C(=O)O)NC(=O)[C@H](C)NC(=O)[C@H](CCC(N)=O)NC(=O)[C@H](CCC(N)=O)NC(=O)[C@H](CCCNC(=N)N)NC(=O)[C@H](C)NC(=O)[C@H](C)NC(=O)[C@H](CCC(N)=O)NC(=O)[C@H](C)NC(=O)[C@H](CCCNC(=N)N)NC(=O)[C@H](C)NC(=O)[C@H](CCC(N)=O)NC(=O)[C@H](CCC(=O)O)NC(=O)[C@H](CC(C)C)NC(=O)[C@H](CC(C)C)NC(=O)[C@@H](NC(=O)[C@H](CCC(N)=O)NC(=O)[C@H](CC(C)C)NC(=O)[C@H](CC(C)C)NC(=O)CNC(=O)[C@@H](NC(=O)[C@@H]1CCCN1C(=O)[C@@H](NC(=O)[C@H](CC(=O)O)NC(=O)[C@H](CC(C)C)NC(=O)[C@H](CO)NC(=O)[C@H](CC(C)C)NC(=O)[C@@H](NC(=O)[C@@H](N)[C@@H](C)CC)C(C)C)C(C)C)[C@@H](C)CC)[C@@H](C)CC)[C@@H](C)O)[C@@H](C)CC)C(=O)N[C@@H](C)C(=O)N[C@@H](CCC(=O)O)C(=O)N[C@H](C(N)=O)C(C)C` [compound 55] (H-IVLSLDVPIGLLQILLEQARAQAARQQAK([AEEA-AEEA-γGlu-γGlu-C20 diacid])TNAEI[Nle]AEV-NH2): the EC50 is 0.126 nM in assay [1] (setting [3]) and 0.251 µM in assay [2] (setting [4]).
For `CCCC[C@H](NC(=O)[C@@H](NC(=O)[C@H](CCC(=O)O)NC(=O)[C@H](C)NC(=O)[C@H](CC(N)=O)NC(=O)[C@@H](NC(=O)[C@H](CCCCNC(=O)COCCOCCNC(=O)COCCOCCNC(=O)CC[C@H](NC(=O)CC[C@H](NC(=O)CCCCCCCCCCCCCCCCCCC(=O)O)C(=O)O)C(=O)O)NC(=O)[C@H](C)NC(=O)[C@H](CCC(N)=O)NC(=O)[C@H](CCC(=O)O)NC(=O)[C@H](CCCNC(=N)N)NC(=O)[C@H](CCC(N)=O)NC(=O)[C@H](C)NC(=O)[C@H](CCC(N)=O)NC(=O)[C@H](C)NC(=O)[C@H](CCCNC(=N)N)NC(=O)[C@H](C)NC(=O)[C@H](CCC(N)=O)NC(=O)[C@H](CCC(=O)O)NC(=O)[C@H](CC(C)C)NC(=O)[C@H](CC(C)C)NC(=O)[C@@H](NC(=O)[C@H](CCC(N)=O)NC(=O)[C@H](CC(C)C)NC(=O)[C@H](CC(C)C)NC(=O)CNC(=O)[C@@H](NC(=O)[C@@H]1CCCN1C(=O)[C@@H](NC(=O)[C@H](CC(=O)O)NC(=O)[C@H](CC(C)C)NC(=O)[C@H](CO)NC(=O)[C@H](CC(C)C)NC(=O)[C@@H](NC(=O)[C@@H](N)[C@@H](C)CC)C(C)C)C(C)C)[C@@H](C)CC)[C@@H](C)CC)[C@@H](C)O)[C@@H](C)CC)C(=O)N[C@@H](C)C(=O)N[C@@H](CCC(=O)O)C(=O)N[C@H](C(N)=O)C(C)C` [SEQ ID NO: 32] (H-IVLSLDVPIGLLQILLEQARAQAQREQAK([AEEA-AEEA-γGlu-γGlu-C20 diacid])TNAEI[Nle]AEV-NH2), the EC50 was 0.316 nM in assay [1] (Table 3, matched molecular pairs X^38 L vs Nle, peptide library of Example 4, read-out: hCRHR2 pEC50 (converted)) and 0.0251 µM in assay [2] (Table 3, matched molecular pairs X^38 L vs Nle, peptide library of Example 4, read-out: hCRHR1 pEC50 (converted)).
